This note sets out measurements from the Kinase Knowledgebase extract (Sharma et al. 2016).

For the test, the target named is EGFR (UniProt P00533). In words: Inhibition of EGFR Kinase Activity.
EGFR, sequence (P00533 whole entry, looked up): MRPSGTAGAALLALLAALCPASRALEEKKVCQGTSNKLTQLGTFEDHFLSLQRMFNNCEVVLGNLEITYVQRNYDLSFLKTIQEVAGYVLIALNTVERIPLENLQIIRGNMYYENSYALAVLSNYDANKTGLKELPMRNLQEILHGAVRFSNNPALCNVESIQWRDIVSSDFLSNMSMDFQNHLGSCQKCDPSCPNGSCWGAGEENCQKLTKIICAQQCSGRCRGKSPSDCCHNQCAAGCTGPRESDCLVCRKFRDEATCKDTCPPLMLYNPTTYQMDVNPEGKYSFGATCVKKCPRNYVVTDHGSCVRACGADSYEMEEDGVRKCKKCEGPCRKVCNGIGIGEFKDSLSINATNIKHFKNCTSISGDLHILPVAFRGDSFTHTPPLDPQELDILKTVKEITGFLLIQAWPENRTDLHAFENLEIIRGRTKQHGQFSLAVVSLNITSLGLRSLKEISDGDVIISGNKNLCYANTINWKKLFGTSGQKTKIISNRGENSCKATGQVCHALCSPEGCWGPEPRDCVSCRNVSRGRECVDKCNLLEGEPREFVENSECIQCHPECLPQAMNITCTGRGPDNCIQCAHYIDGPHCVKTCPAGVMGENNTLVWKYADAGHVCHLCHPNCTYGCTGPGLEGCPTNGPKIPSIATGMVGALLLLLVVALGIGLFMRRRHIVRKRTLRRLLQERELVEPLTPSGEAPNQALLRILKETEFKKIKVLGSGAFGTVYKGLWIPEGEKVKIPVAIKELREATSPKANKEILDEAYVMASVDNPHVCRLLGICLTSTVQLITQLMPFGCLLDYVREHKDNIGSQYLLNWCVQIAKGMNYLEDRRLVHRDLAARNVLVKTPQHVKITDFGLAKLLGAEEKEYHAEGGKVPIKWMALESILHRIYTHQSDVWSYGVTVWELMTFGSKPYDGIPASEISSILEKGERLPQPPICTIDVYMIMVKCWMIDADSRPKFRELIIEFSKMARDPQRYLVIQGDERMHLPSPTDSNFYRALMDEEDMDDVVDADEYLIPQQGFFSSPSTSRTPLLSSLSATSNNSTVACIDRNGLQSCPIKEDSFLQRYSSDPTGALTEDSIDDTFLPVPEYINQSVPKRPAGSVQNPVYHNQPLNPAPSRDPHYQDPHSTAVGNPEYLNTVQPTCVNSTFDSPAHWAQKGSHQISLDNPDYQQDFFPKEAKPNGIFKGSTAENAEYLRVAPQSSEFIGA
`C=CCN(c1ncnc(Nc2cccc(NC(=O)C#CC)c2)n1)c1cccc2ccccc12` returned an IC50 of less than 50 µM.

Turning to `C=CC(=O)Nc1cccc(Nc2ncnc(NN3CCCc4cc(Cl)ccc43)n2)c1`, the half-maximal inhibitory concentration (IC50) was less than 50 µM.

Consider `C=CCN(c1ccc(OCC)c(OCC)c1)c1ncnc(Nc2cccc(NC(=O)C#CC)c2)n1`, for which the concentration for half-maximal inhibition (IC50) is less than 50 µM.

`C=CC(=O)Nc1ccc(Nc2ncnc(N(CC)c3ccc(OCCC)c(OCCC)c3)n2)cc1` gave an IC50 of less than 50 µM.

The compound `C=CCN(c1ccc2c(cnn2Cc2ccccc2)c1)c1ncnc(Nc2ccc(NC(=O)C=C)cc2)n1` displayed a 50% inhibitory concentration (IC50) of less than 50 µM.

With `C=CC(=O)Nc1cccc(Nc2ncnc(Nc3ccc(OC)c(OCCOC)c3)n2)c1`, the IC50 is less than 50 µM.

With `C=CC(=O)Nc1ccc(Nc2ncnc(N(C)c3ccc(OCCOC)c(OC)c3)n2)cc1`, the IC50 is less than 50 µM.

As for `C=CC(=O)Nc1cccc(Nc2ncnc(N(C)c3cccc(C(N)=O)c3)n2)c1`, the 50% inhibitory concentration (IC50) was less than 50 µM.

The compound `C=CCN(c1cccc(C(N)=O)c1)c1ncnc(Nc2cccc(NC(=O)C#CC)c2)n1` showed an IC50 of less than 50 µM.

In the case of `C=CC(=O)Nc1cccc(Nc2ncnc(N(CC)c3cccc(S(=O)(=O)c4ccc([N+](=O)[O-])cc4)c3)n2)c1`, the IC50 was less than 50 µM.

`C=CC(=O)Nc1cccc(Nc2ncnc(N(CC)C3CC3c3ccc(Cl)cc3)n2)c1` (stereo not drawn) yielded a half-maximal inhibitory concentration (IC50) of less than 50 µM.

`CC#CC(=O)Nc1cccc(Nc2ncnc(N(C)c3ccc(OCCO)cc3)n2)c1` displayed an IC50 of less than 50 µM.

Regarding `C=CCN(c1ccc2NN(=Cc2c1)Cc3ccccn3)c4ncnc(Nc5cccc(NC(=O)C=C)c5)n4`, the IC50 is less than 50 µM.

Turning to `C=CC(=O)Nc1cc(Nc2ncnc(Nc3ccc(OCc4ccccc4)c(Cl)c3)n2)ccc1OCCCN1CCOCC1`, the IC50 is less than 50 µM.

Compound `C=CC(=O)Nc1ccc(Nc2ncnc(N(CC)c3cccc(CC(=O)OC)c3)n2)cc1` showed a half-inhibitory concentration (IC50) of less than 50 µM.

On to `C=CCN(c1cccc(C(N)=O)c1)c1ncnc(Nc2ccc(NC(=O)C=C)cc2)n1`, for which the half-maximal inhibitory concentration (IC50) was less than 50 µM.

`CC#CC(=O)Nc1cccc(Nc2ncnc(NC3CC3c3ccc(Cl)cc3)n2)c1` (stereo not drawn) came in with an IC50 of less than 50 µM.

As to `C=CC(=O)Nc1cccc(Nc2ncnc(N(CC)c3ccc(F)c(Cl)c3)n2)c1`, the IC50 was less than 50 µM.

Regarding `C=CCN(c1cccc(CC(=O)OC)c1)c1ncnc(Nc2ccc(NC(=O)C=C)cc2)n1`, the half-maximal inhibitory concentration (IC50) was less than 50 µM.

The compound `C=C/C=C/C(=O)Nc1cccc(Nc2ncnc(Nc3ccc4c(ccn4Cc4ccccc4)c3)n2)c1` had an IC50 of less than 50 µM.

As to `C=CC(=O)Nc1cccc(Nc2ncnc(Nc3ccc(OCC)c(OCC)c3)n2)c1`, the IC50 is less than 50 µM.

Compound `C=CC(=O)Nc1ccc(Nc2ncnc(Nc3cccc(CC(=O)OC)c3)n2)cc1` displayed an IC50 of less than 50 µM.

Compound `C=CCN(c1ncnc(Nc2ccc(NC(=O)C=C)cc2)n1)c1cc(Cl)cc2ccccc12` had an IC50 of less than 50 µM.

`C=CC(=O)Nc1cccc(Nc2ncnc(N(CC)c3ccc(OCC)c(OCC)c3)n2)c1` registered an IC50 of less than 50 µM.

Compound `C=CC(=O)Nc1ccc(Nc2ncnc(N(CC)c3ccc(F)c(Cl)c3)n2)cc1` showed an IC50 of less than 50 µM.

`CC#CC(=O)Nc1cc(Nc2ncnc(N(C)c3ccc(OCc4ccccc4)c(Cl)c3)n2)ccc1OCCCN1CCOCC1` returned an IC50 of less than 50 µM.

`C=CC(=O)N(CCCN1CCOCC1)c2cccc(Nc3ncnc(Nc4ccc5NN(=Cc5c4)Cc6ccccn6)n3)c2` came in with an IC50 of less than 50 µM.

In turn, `CC#CC(=O)Nc1cccc(Nc2ncnc(N(C)c3cc(Cl)ccc3C)n2)c1` had an IC50 of less than 50 µM.

Take `C=CCN(c1ncnc(Nc2cccc(NC(=O)C#CC)c2)n1)C1CC1c1ccc(Cl)cc1` (stereo not drawn): the half-inhibitory concentration (IC50) is less than 50 µM.

`C=CC(=O)Nc1cc(Nc2ncnc(Nc3ccc4c(cnn4Cc4ccccc4)c3)n2)ccc1OCCCN1CCOCC1` displayed a half-inhibitory concentration (IC50) of less than 50 µM.

As for `C=CC(=O)Nc1ccc(Nc2ncnc(N(C)c3ccc(C(=O)OC)cc3)n2)cc1`, the IC50 is less than 50 µM.

For `C=CC(=O)N(CCCN1CCOCC1)c1cccc(Nc2ncnc(Nc3ccc4c(cnn4Cc4ccccc4)c3)n2)c1`, the half-maximal inhibitory concentration (IC50) was less than 50 µM.

Regarding `C=CC(=O)Nc1cc(Nc2ncnc(Nc3ccc4c(cnn4Cc4ccccc4)c3)n2)ccc1OC`, the IC50 is less than 50 µM.

What is called IC50 is the concentration needed to halve the response being measured. A low value points to greater potency.
